Experimental findings from patent US20240317727A1 (Duke University, priority 2018, published 2024) are described below.

The first experiment concerns the target T1, recombinant HSF1 DNA-binding domain (DBD) (Homo sapiens, UniProt Q00613).
T1 sequence (Q00613 15-120): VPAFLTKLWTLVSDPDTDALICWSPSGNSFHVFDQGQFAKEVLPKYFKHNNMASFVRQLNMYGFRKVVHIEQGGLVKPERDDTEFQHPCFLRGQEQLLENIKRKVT
In words: Differential Scanning Fluorimetry (DSF), HSF1 DBD melting temperature. To be noted: Table 1; 5 μM HSF1 DBD, 25PM Compound; positive = stabilizes, negative = destabilizes HSF1.
For the compound `Cc1cccc(NC(=O)Nc2ccc(Cl)c([N+](=O)[O-])c2)c1` [Compound 0026, 1-(4-chloro-3-nitrophenyl)-3-(m-tolyl)urea], the ΔTm at 25 µM was found to be 5.75 °C.
Consider `COc1ccc(CSc2ccc([N+](=O)[O-])c3nonc23)cc1` [Compound 0089], for which the ΔTm at 25 µM is -5.73 °C.
With `O=C(Nc1ccccc1)Nc1ccc(Cl)c(Cl)c1` [Compound 0022, 1-(3,4-dichlorophenyl)-3-phenylurea], the ΔTm at 25 µM stood at 2.78 °C.
As for `O=[N+]([O-])c1cc(/C=N/Nc2ccc(Br)c(Cl)c2)cs1` [Compound 0038], the ΔTm at 25 µM is 7.27 °C.
For `O=C(Nc1cc(Cl)ccc1O)c1ccccc1CSc1ccc(Cl)cc1` [Compound 0104], the ΔTm at 25 µM amounted to 3.27 °C.
With `O=C(Nc1ccc(F)c(F)c1)Nc1ccc(Cl)c(C(F)(F)F)c1` [Compound 0101, 1-(4-chloro-3-(trifluoromethyl)phenyl)-3-(3,4-difluorophenyl)urea], the ΔTm at 25 µM was 3.33 °C.
Turning to `Cc1ccc(CNC(=O)CSc2nnc(-c3ccc(C)cc3)n2-c2ccccc2)cc1` [Compound 0025], the ΔTm at 25 µM is -9.21 °C.
Same read-out and setting: next, `O=C(Nc1ccc(S(=O)(=O)N2CCCCC2)cc1)c1cccc(Cl)c1` [Compound 0097]: 3.43 °C; `Cc1ccc(NC(=O)Nc2cccc([N+](=O)[O-])c2)cc1` [Compound 0110, 1-(3-nitrophenyl)-3-(p-tolyl)urea]: 2.94 °C.
Regarding `O=C(Nc1ccc(F)cc1)Nc1ccc(Cl)nc1` [Compound 0090, 1-(6-chloro-3-pyridyl)-3-(4-fluorophenyl) urea], the ΔTm at 25 µM turned out to be 0.67 °C.
The same measure, in the same setting: next, `Cc1ccc(CNC(=O)CSc2nnc(-c3cccc(N)c3)n2-c2ccccc2)cc1` [Compound 0004]: -9.46 °C; `COC(=O)c1cc(C#N)c(Sc2c([N+](=O)[O-])cc(C(F)(F)F)cc2[N+](=O)[O-])nc1C(OC)OC` [Compound 0013]: -7.4 °C; `O=C(N/C=C/c1ccsc1)Nc1cc(Cl)ccc1F` [Compound 0010]: 5.43 °C.
Consider `O=C(Nc1ccc(Cl)cc1)Nc1cccc(Cl)c1` [Compound 0066, 1-(3-chlorophenyl)-3-(4-chlorophenyl)urea], for which the ΔTm at 25 µM was 3 °C.
Consider `O=C(Nc1ccccc1)Nc1ccc(OC(F)(F)F)cc1` [Compound 0085], for which the ΔTm at 25 µM was 3.26 °C.
Same read-out and setting: next, `COc1ccc(NC(=O)Nc2ccc(C)cc2)cc1` [Compound 0011, 1-(4-methoxyphenyl)-3-(p-tolyl)urea]: 2.61 °C.
`O=C(Nc1cccnc1)c1cc2c(s1)-c1ccccc1CC2` [Compound 0028]: the ΔTm at 25 µM is -9.69 °C.
`O=[N+]([O-])c1cc(C(F)(F)F)cc([N+](=O)[O-])c1Oc1ccc(C2CCCCC2)cc1` [Compound 0102]: the ΔTm at 25 µM is -6.23 °C.
As for `COc1cc2cc(N(C)CCCNC(=O)C3CCCO3)cc(N)c2cc1OC` (stereo not shown) [Compound 0088], the ΔTm at 25 µM was -3.02 °C.
On to `CCOC(=O)CCc1ccc(Oc2c([N+](=O)[O-])cc(C(F)(F)F)cc2[N+](=O)[O-])cc1` [Compound 0072], for which the ΔTm at 25 µM came out at 3.39 °C.
The same measure, in the same setting: for `O=S1(=O)N=C(Nc2ccc(F)cc2)C(Nc2ccc(Cl)c(C(F)(F)F)c2)=N1` [Compound 0033, N3-[4-chloro-3-(trifluoromethyl)phenyl]-N4-(4-fluorophenyl)-1,1-dioxo-1,2,5-thiadiazole-3,4-diamine] the value was 1.9 °C; for `O=C(N/N=C/c1ccc(Br)s1)c1[nH]cc2ccccc12` [Compound 0069], 8.06 °C.
For the compound `O=C(CSc1nnc(-c2ccncc2)n1-c1ccccc1)N/N=C/c1cccnc1` [Compound 0029], the ΔTm at 25 µM was -8.96 °C.
Same read-out and setting: for `COc1ccc(NC(=O)Nc2ccc(Cl)cc2)cc1` [Compound 0036, 1-(4-chlorophenyl)-3-(4-methoxyphenyl)urea] the value was 2.61 °C.
As to `O=C(Nc1cccc(Cl)c1)O/N=C/c1ccc(F)cc1` [Compound 0051], the ΔTm was −6.91.
For the compound `N#CN=C(Nc1ccc(F)cc1)Nc1ccc(Cl)c([N+](=O)[O-])c1` [Compound 0047, 1-(4-chloro-3-nitro-phenyl)-2-cyano-3-(4-fluorophenyl)guanidine], the ΔTm at 25 µM came out at 0.75 °C.
`CC(C)c1ccc2c(c1)c(SC(C)(C)C)c(CC(C)(C)C(=O)O)n2Cc1ccc(Cl)cc1` [Compound 0109]: the ΔTm at 25 µM was -9.02 °C.
Still for that read-out and setting: next, `CC(NC(=O)CSc1nnc(-c2ccccc2O)n1-c1ccccc1)c1ccccc1` (stereo not shown) [Compound 0052]: -11 °C; `Cn1ncc(S(=O)(=O)Cc2ccccc2)c(Cl)c1=O` [Compound 0014]: -4.56 °C.

Staying with this experiment, now noted: Table 3; 5 μM HSF1 DBD, 25PM Compound; positive = stabilizes, negative = destabilizes HSF1.
In the case of `CN(C(=O)Nc1ccc(Cl)c([N+](=O)[O-])c1)c1ccc(F)cc1` [Compound 023, 3-(4-chloro-3-nitro-phenyl)-1-(4-fluorophenyl)-1-methyl-urea], the ΔTm at 25 µM was 0.67 °C.
As to `O=C(Nc1ccc(F)cc1)Nc1cccc(C(F)(F)F)c1` [Compound 003, 1-(4-fluorophenyl)-3-(3-(trifluoromethyl)phenyl)urea], the ΔTm at 25 µM was found to be 1.78 °C.
On to `O=c1c(Nc2ccc(F)c(F)c2)c(Nc2ccc(Cl)c(C(F)(F)F)c2)c1=O` [Compound 092, 3-[4-chloro-3-(trifluoromethyl)anilino]-4-(3,4-difluoroanilino)cyclobut-3-ene-1,2-dione], for which the ΔTm at 25 µM is 2.33 °C.
Consider `O=C(Nc1ccccc1)Nc1ccc(Cl)c(Cl)c1` [Compound 022, 1-(3,4-dichlorophenyl)-3-phenylurea], for which the ΔTm at 25 µM was 2.78 °C.
Regarding `Cc1cccc(NC(=O)Nc2cccc([N+](=O)[O-])c2)c1` [Compound 067, 1-(3-nitrophenyl)-3-(m-tolyl)urea], the ΔTm at 25 µM was determined as 4 °C.
Same read-out and setting: next, `O=C(Nc1ccc(F)cc1)Nc1ccc(Cl)cc1` [Compound 096, 1-(4-chlorophenyl)-3-(4-fluorophenyl)urea]: 2.61 °C; `O=C(Nc1ccc(Cl)cc1)Nc1cccc(Cl)c1` [Compound 066, 1-(3-chlorophenyl)-3-(4-chlorophenyl)urea]: 3 °C; `Cc1cccc(NC(=O)Nc2ccc(Cl)c([N+](=O)[O-])c2)c1` [Compound 026, 1-(4-chloro-3-nitrophenyl)-3-(m-tolyl)urea]: 5.75 °C.
As for `Cc1ccc(NC(=O)Nc2cccc(Cl)c2)cc1` [Compound 068, 1-(3-chlorophenyl)-3-(p-tolyl)urea], the ΔTm at 25 µM was determined as 2.75 °C.
On the same count and under the same terms, next, `O=C(Nc1ccc(Cl)cc1)Nc1cccc([N+](=O)[O-])c1` [Compound 049, 1-(4-chlorophenyl)-3-(3-nitrophenyl)urea]: 3.11 °C.
With `O=c1c(Nc2ccc(F)c(F)c2)c(Nc2ccc(Cl)c(S(=O)(=O)C(F)(F)F)c2)c1=O` [Compound 016, 3-[4-chloro-3-(trifluoromethylsulfonyl)anilino]-4-(3,4-difluoroanilino)cyclobut-3-ene-1,2-dione], the ΔTm at 25 µM is 2.75 °C.
Same read-out and setting: for `O=C(Nc1cccc(Cl)c1)Nc1cccc([N+](=O)[O-])c1` [Compound 078, 1-(3-chlorophenyl)-3-(3-nitrophenyl)urea] the value was 2.5 °C; for `O=C(Nc1ccc(F)cc1)Nc1ccc(Cl)nc1` [Compound 090, 1-(6-chloro-3-pyridyl)-3-(4-fluorophenyl) urea], 0.67 °C; for `O=C(Nc1cccc(Cl)c1)Nc1ccc(Cl)c([N+](=O)[O-])c1` [Compound 061, 1-(4-chloro-3-nitrophenyl)-3-(3-chlorophenyl)urea], 2.94 °C.
